Test results taken from patent US8026207B2, “Peptides and compositions for inhibiting fungal growth” (Japan Science and Technology Agency, priority 2005, dated 2011).
Ends that are not written are not given here.

Columns and labels:
Candida = details: cited from earlier work
human erythrocytes = test: Toxicity Test 1: hemolytic test using erythrocytes; assay type: cell-based; details: peptides 0.325-100 μM, FIG. 3
Description: A final concentration of the peptides was adjusted in a range of 0.325-100 μM, and the test was done using human erythrocytes in accordance with Nikawa H, Fukushima H, Makihira S, Hamada T, Samaranayake L P. Fungicidal effect of three new synthetic cationic peptides against Candida albicans. Oral Dis. 2004 July; 10(4): 221-8.

C. albicans = test: Antifungal Test 1: survival of Candida by colony count after incubation with peptide; assay type: cell-based; details: for concentration showing a lethal ratio of 100%: Candida strain from oral cavity of a patient, 90 min at 37° C., colony count after 48 h
Description: The antifungal action against Candida was examined in order to confirm the antifungal effect of the present peptide. The peptide was synthesized by a conventional amino acid synthesis method using a peptide synthesizer manufactured by Shimazu Co. of Japan. The strain of Candida was isolated and provided from oral cavity of a patient in Glasgowden Hospital. The antifungal effect of the present peptide was evaluated using the above Candida strain according to the method of Edgerton et al (1998). Twenty μl of the suspension of C. albicans (1.8×10^5 cfu/mL) was mixed with the same amount of a peptide solution (0.325 μM-25 μM of the peptide concentration) and incubated for 90 min at 37° C. The reaction was stopped by adding Yeast Nitrogen Base medium. The resulting mixture was spread onto Sabouraud dextrose agar plate and incubated for 48 h at 37° C. The number of living strains was determined by colony count and survival percentage (%) was calculated in comparison with the number of colony (100%) obtained using 1 mM phosphate buffer as a control instead of the peptide solution.
The antifungal effect (∘) of the present peptide (JH8194Y) is compared with that of JH8194 (*) , His5:Histatin 5 ([…]:♦)(SEQ ID NO: 6), LFG: Bovine lactoferrin ([…]: ▪)fSEQ ID NO: 7), LFB frag (FKCRRWQWRMKKLG:▴)(SEQ ID NO: 8), and Dhvar 4: Histatin analog developed by Holland ACTA (KRLFKKLLFSLRKY: x)(SEQ ID NO: 9). The ordinate and abscissa axes of FIG. 1 indicate percentage survived of Candida, and the concentration of peptide, respectively.

Compound | Minimal Fungicidal Concentration (Candida) [µM] | concentration eliciting hemolysis (human erythrocytes) [µM] | concentration showing a lethal ratio of 100% (C. albicans) [µM] | antifungal effect (comparison in words) (C. albicans; FIG. 1)
C[C@@H]1[C@H](O)[C@@H](C)/C=C/C=C/C=C/C=C/C=C/C=C/C=C/[C@H](O[C@@H]2O[C@H](C)[C@@H](O)[C@H](N)[C@@H]2O)C[C@@H]2O[C@](O)(C[C@@H](O)C[C@@H](O)[C@H](O)CC[C@@H](O)C[C@@H](O)CC(=O)O[C@H]1C)C[C@H](O)[C@H]2C(=O)O [amphotericin B] | 5 | ≥ 5 |  | 
DSHEKRHHGYKRKFHEKHHSHRGY (Synthetic peptide Histatin 5) [basic antifungal peptide of the Histatin family existing in saliva] |  |  | > 50 | 
KRLFRRWQWRMKKY |  |  | 2.5 | much stronger antifungal effect than lactoferrin and lactoferrin B
KRLFRRWQWRY |  |  | 1.25 | 
